Data on 16 compounds can be found in PubChem BioAssay (NCI).

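In this assay, cells in 96-well plates receive the compound at five concentrations for 48 hours. Endpoints are linearly interpolated between the surrounding concentrations. Here, GI50 denotes the concentration required for 50% inhibition of growth. The concentration for full growth arrest is given as TGI.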

What all share (experiment): NCI-60 cell line screen, 48 h
The subject of test [1] is UACC-257 melanoma.
Test [2] has as its system KM12 colon.
In test [3] the test system is NCI/ADR-RES ovarian.
The test system of test [4] is CAKI-1 renal.
Test [5] concerns M14 melanoma.
Test [6] deals with HCT-15 colon.
Test [7] relates to IGROV1 ovarian.
In test [8] the test system is SK-MEL-2 melanoma.
Test [9] relates to MOLT-4 leukemia.
Test [10] relates to SF-268 CNS.

Take `CC1(C)CCC[C@]2(C)[C@@H](C=O)C(C=O)=CC[C@@H]12`: the TGI in [1] came out at 31.5 µM; in [2] it was 31.5 µM; in test [3], 40.8 µM; in test [4] it was 23.1 µM; in [5], 33.7 µM; in test [6], 30.7 µM. For the same compound, the TGI in test [7] was 44.4 µM; in test [8] it was 39.7 µM; in test [9] it was 30.5 µM; in test [10], 55.8 µM.

For `COc1ccc(OC)c(Cn2cc3c(c2)-c2oncc2CC3)c1`, the GI50 in test [1] is 5.11 µM; in test [2], 3.02 µM; in test [3], 2.01 µM; in [4], 2.73 µM; in test [5] it was 2150 nM; in [6] it was 2920 nM. Further, the GI50 in [7] was 3.87 µM; in test [8], 2.03 µM; in test [9] it was 3.08 µM; in test [10], 6.22 µM. In addition, the TGI is > 82.4 µM in [1]; 39.4 µM in test [2]; 6.68 µM in [3]; > 100 µM in test [4]; 9.48 µM in test [5]; > 100 µM in test [6]. Moreover, the TGI is > 100 µM in test [7], 7.62 µM in [8], > 41.2 µM in test [9] and > 100 µM in test [10].

In the case of `N/N=C1\CC(=O)NC(=O)N1`, the TGI in test [1], in [2], in [3], in test [4], in [5] and in test [6] was > 100 µM throughout. Besides, the TGI in test [7], in [8], in test [9] and in [10] was > 100 µM in each case.

Take `O=C1NC(=O)C(c2cccc(Cl)c2)=C1Nc1ccc(O)c(Cl)c1`: the GI50 in [1] is > 25 µM; in [2], 10.5 µM; in test [3], 10.4 µM; in test [4], 7.72 µM; in test [5], 12100 nM; in test [6], 8660 nM. Further, the GI50 in test [7] was 12.9 µM; in test [8], 7.91 µM; in [9] it was 15 µM; in [10], 11.2 µM. The TGI in test [1], in test [2], in test [3], in test [4], in test [5] and in test [6] was > 25 µM in each case. Moreover, the TGI in test [7] was > 25 µM; in test [8], 22.5 µM; in test [9] it was > 25 µM; in test [10], > 25 µM.

As for `CC(C)(C)CN1CCn2c(nc3c(N)nccc32)S1`, the GI50 in [1] is 19.7 µM; in test [2], 4.23 µM; in test [3], 17.1 µM; in [4], 25.3 µM; in test [5], 5680 nM; in test [6] it was 3920 nM. Further, the GI50 was 11.7 µM in test [7], 69.3 µM in [8], 5.55 µM in test [9] and 12.5 µM in [10]. The TGI in [1] was 79.1 µM; in test [2], 17.1 µM; in test [3], > 100 µM; in [4] it was > 100 µM; in [5], 24.9 µM; in test [6], 26.2 µM. Further, the TGI is 30.3 µM in test [7], > 100 µM in test [8], 82 µM in test [9] and 34.9 µM in test [10].

On to `CN1CCC(n2cnc(-c3ccc(F)cc3)c2-c2ccnc(N)n2)CC1`, for which the GI50 in test [1] is 11.7 µM; in test [2], 8.64 µM; in test [3], 7.55 µM; in test [4] it was 7.63 µM; in test [5], 11700 nM; in [6], 10500 nM. Further, the GI50 in [7] was 6.48 µM; in [8], > 25 µM; in [9] it was 12.6 µM; in test [10], 10.4 µM. The TGI in [1] was > 25 µM; in test [2] it was > 25 µM; in test [3], > 25 µM; in [4], > 24.1 µM; in test [5], > 25 µM; in [6], > 25 µM. Also, the TGI in [7] was > 20.7 µM; in test [8] it was > 25 µM; in test [9], > 25 µM; in test [10], > 25 µM.

On to `CC(=O)c1c(C(F)(F)F)n([O-])c2ccc(C)cc2[n+]1=O`, for which the GI50 was 4.42 µM in [1]; 5.04 µM in test [2]; 3.34 µM in test [3]; 3.46 µM in test [4]; 2410 nM in [5]; 2450 nM in [6]. Further, the GI50 was 4.14 µM in test [7], 15.5 µM in test [8], 0.0504 µM in test [9] and 3.41 µM in test [10]. In addition, the TGI was > 46.8 µM in [1]; > 52.2 µM in [2]; > 35.5 µM in [3]; 24.6 µM in test [4]; 8.88 µM in [5]; 39.4 µM in test [6]. Moreover, the TGI in test [7] is > 100 µM; in test [8], > 66.5 µM; in [9], 5.2 µM; in test [10], > 38.9 µM.

In the case of `CC(C)=CCC/C(C)=C/CC/C(C)=C/CC/C=C(\C)CC/C=C(\C)CCC(=O)Nc1ccn(C2OC(CO)C(O)C2(F)F)c(=O)n1` (centres undefined), the GI50 is 0.252 µM in test [1]; 0.181 µM in test [2]; 0.116 µM in test [3]; 0.042 µM in test [4]; 51.9 nM in test [5]; 691 nM in test [6]. For the same compound, the GI50 in [7] is 0.142 µM; in [8], 0.0183 µM; in test [9], 0.0743 µM; in test [10] it was 0.0853 µM. Further, the TGI worked out at 8.22 µM in test [1]; 18.1 µM in [2]; 16.6 µM in test [3]; 9.85 µM in [4]; 1.2 µM in test [5]; 28 µM in test [6]. Further, the TGI amounted to 11.1 µM in test [7], 1.28 µM in test [8], 1.5 µM in test [9] and 3.51 µM in test [10].

Regarding `COc1ccc2cc(-c3c(-c4ccncc4)nc(-c4ccc(S(C)=O)cc4)n3C)ccc2c1` (centres undefined), the GI50 in test [1] is > 25 µM; in test [2], > 24.1 µM; in test [3] it was > 22.9 µM; in test [4], 19.4 µM; in test [5], > 25000 nM; in test [6], 9570 nM. Further, the GI50 in [7] is > 25 µM; in [8], > 25 µM; in test [9], 17.2 µM; in test [10], > 25 µM. Also, the TGI in [1], in test [2], in [3], in [4], in [5] and in test [6] was > 25 µM each time. Also, the TGI in [7], in test [8], in test [9] and in test [10] was > 25 µM each time.

As to `CC1(C)N=C(N)N=C(N)N1c1ccc(CCCCc2ccc(S(=O)(=O)F)cc2)c(Cl)c1`, the GI50 was 0.929 µM in [1]; 0.454 µM in test [2]; 45 µM in test [3]; 0.79 µM in test [4]; 334 nM in [5]; 593 nM in test [6]. The GI50 was 0.0592 µM in test [7], 2.48 µM in test [8], 0.518 µM in [9] and 0.225 µM in test [10]. The TGI in test [1] was 19.1 µM; in test [2] it was 15.2 µM; in [3], > 100 µM; in test [4], > 100 µM; in [5], 17.9 µM; in [6] it was > 100 µM. The TGI came out at 21.5 µM in test [7], 20.7 µM in test [8], 21.4 µM in [9] and 19.5 µM in test [10].

In the case of `Cc1cc(N(CCC#N)CCC#N)ccc1/C=C1N=C(/C=C\c2ccccc2)N(c2ccc(Cl)cc2)C\1=O`, the TGI in test [1] is > 100 µM; in [2] it was > 100 µM; in [3] it was > 100 µM; in test [4], > 100 µM; in test [5], > 48.2 µM; in [6], > 100 µM. For the same compound, the TGI in [7], in test [8], in test [9] and in test [10] was > 100 µM throughout.

In the case of `COc1ccc(C(=O)N2c3ccccc3Sc3ccccc32)c(OC)c1`, the GI50 in [1] is 27.8 µM; in [2], 0.438 µM; in test [3], 0.4 µM; in test [4], 0.573 µM; in test [5], 359 nM; in test [6], 464 nM. Further, the GI50 in test [7] is 0.926 µM; in test [8] it was 0.585 µM; in test [9] it was 0.447 µM; in test [10] it was 0.853 µM. Also, the TGI in test [1] was > 100 µM; in test [2] it was > 100 µM; in [3], 42.1 µM; in [4], > 100 µM; in test [5], > 100 µM; in [6], > 100 µM. Besides, the TGI in test [7], in [8], in test [9] and in test [10] was > 100 µM throughout.

For `C[C@@H]1O[C@@H](O[C@H]2CC[C@@]3(C)[C@H](CCC4[C@@H]3C(O)C[C@]3(C)[C@@H](c5ccc(=O)oc5)CC[C@]43O)C2)[C@H](O)[C@H](O)[C@H]1O` (some centres undefined), the GI50 in [1] is 0.00589 µM; in [2], 0.00696 µM; in test [3], < 0.00325 µM; in [4], 0.0042 µM; in test [5] it was 6.09 nM; in test [6] it was 7.86 nM. Also, the GI50 in test [7] is 0.0065 µM; in test [8], 0.00741 µM; in [9], < 0.00325 µM; in test [10], < 0.00325 µM. Moreover, the TGI in [1] was found to be 0.0121 µM; in [2] it was 0.0157 µM; in test [3], 0.00578 µM; in test [4] it was 0.0154 µM; in [5], 0.0148 µM; in [6] it was 0.0209 µM. Also, the TGI came out at 0.0237 µM in test [7], 0.0163 µM in test [8] and 0.00502 µM in test [10].

As to `C#CCOc1cccc(Nc2ncnc3c(NC(=O)CCl)cccc23)c1`, the GI50 is 45 µM in test [1]; 17.4 µM in test [2]; 32 µM in test [3]; 15.8 µM in test [4]; 18200 nM in [5]; 20200 nM in test [6]. The GI50 was 17 µM in [7], 21.1 µM in test [8], 14.4 µM in test [9] and 15.7 µM in [10]. For the same compound, the TGI in test [1] was > 100 µM; in test [2], 37.8 µM; in test [3], > 100 µM; in [4], 30.7 µM; in test [5], 54.5 µM; in [6], 72.5 µM. The TGI was 37.9 µM in test [7], 60.8 µM in [8], 71.1 µM in test [9] and 36.4 µM in test [10].

For the compound `COc1cc(/C=C/[N+](=O)[O-])cc(Br)c1OC`, the GI50 in test [1] was 2.88 µM; in test [2], 3 µM; in test [3], 3.62 µM; in test [4], 1.89 µM; in test [5] it was 1780 nM; in test [6], 2680 nM. For the same compound, the GI50 in [7] is 1.84 µM; in test [8], 2.67 µM; in test [9], 3.52 µM; in test [10], 3.64 µM. Moreover, the TGI came to 10.4 µM in test [1]; 10.1 µM in test [2]; 19.5 µM in test [3]; 5.23 µM in test [4]; 3.74 µM in [5]; 8.98 µM in test [6]. Also, the TGI in test [7] stood at 4.54 µM; in [8], 5.71 µM; in test [9] it was 53.6 µM; in test [10], 13.2 µM.

Consider `O=C(Nc1cccc(Nc2ncc(Br)c(NCCc3cnc[nH]3)n2)c1)N1CCCC1`, for which the GI50 in test [1] was 12 µM; in test [2] it was 0.869 µM; in [3] it was > 66.7 µM; in test [4] it was 7.14 µM; in test [5], 6230 nM; in test [6] it was 21700 nM. Further, the GI50 in test [7] is 3.23 µM; in test [8], 5.31 µM; in test [9] it was 2.41 µM; in [10], 1.41 µM. For the same compound, the TGI in test [1] was 37.5 µM; in test [2], 11.5 µM; in test [3], > 100 µM; in test [4], 33.2 µM; in [5] it was 21.8 µM; in test [6], > 67 µM. Moreover, the TGI was 28.8 µM in test [7], 19.4 µM in [8], 24.8 µM in test [9] and 13.9 µM in test [10].
